Test results published in ChEMBL document CHEMBL4190379 (Bioorg Med Chem Lett, 2018).

How the values were obtained:
Mus musculus [1] = experiment: Toxicity in human OPM2 cells xenografted SCID-beige mouse assessed as body weight loss at 3.75 mg/kg, po qd administered for 28 days starting from 18 days post tumor inoculation; format: organism-based; conditions: in vivo
Mus musculus [2] = experiment: Toxicity in human OPM2 cells xenografted SCID-beige mouse assessed as body weight loss at 7.5 mg/kg, po qd administered for 28 days starting from 18 days post tumor inoculation; format: organism-based; conditions: in vivo

Cn1cc2c3c(c[nH]c(=O)c31)-c1cc(CS(C)(=O)=O)ccc1N(c1ccc(F)cc1)C2 gave an Activity (Mus musculus [1]) of 10% and an Activity (Mus musculus [2]) of 9%.
